Assay results published in publication PMC11674305, “Inhibition of Neural Crest Cell Migration by Strobilurin Fungicides and Other Mitochondrial Toxicants” (Cells, 2024).
Where two headings read alike, the source gives them in different places.

Tests used:
neural crest cells (NCC) [1] = test: Intracellular ATP measurement (CellTiterGlo); format: cell-based, human; settings: after 60 min, at BMC10 (V) of cMINC
Method: Cells were seeded at a density of 20,000 cells/well. The NCCs were treated with the BMC10 (V) of the cMINC screen for one hour, six hours or 24 h. Then, a CellTiterGlo-Triton mix was prepared. Therefore, a 0.5% Triton solution in PBS was prepared, and the commercial reagent mix CellTiterGlo 2.0 (Promgea, Madison, WI, USA) was added in a 1:1 ratio. An amount of 50 µL/well of the mix was added to 100 µL of medium. The plate was shaken for two minutes, and 100 µL of the cell mixture was transferred to a white measurement plate. For the blank value, only medium with the mix was measured. Luminescence data of samples were normalized to DMSO solvent controls, and the ATP data are given in % relative to “untreated cells”.

[2] = cited from earlier work
neural crest cells (NCC) [3] = format: cell-based, human
Method: The research group initially developed the first version of the test in 2012 [40]. The test has been further improved and characterized. To perform the cMINC assay, NCCs were thawed in N2-S Medium and seeded on the day of migration-1 (DoM-1) on a 96-well polystyrene plate (Corning, Glendale, AZ, USA) around stoppers, to create a cell-free area of 2 mm diameter (Platypus Technologies, Madison, WI, USA). The cells were resuspended in N2-S Medium supplemented with […] of the cytokines EGF and FGF, and then counted and seeded around the stoppers at a density of 95,000 cells/cm^2. After 24 h, the stoppers were removed, and the medium was exchanged. […]
On day 2, cells were stained with 533 nM calcein-AM and 1 μg/mL H-33342 (both from Sigma, Steinheim, Germany) and observed using two different channels on the Cellomics ArrayScan VTI imaging microscope (Thermo Fisher, Pittsburgh, PA, USA) to assess viability and migration. […] Cell viability was assessed by taking four pictures outside of the ROI with 10× magnification objective. Viable cells were defined as H-33342 and calcein-AM double-positive cells and calculated by an automatic algorithm of the ArrayScan VTI 700 Series software as described earlier. […] The average response (relative to solvent control) of the lowest two test concentrations was calculated, and all other data points of the same curve were divided by this average value. […]

neural crest cells (NCC) [4] = test: Long-term transwell migration assay (18 h pre-exposure, 6 h migration); format: cell-based, human
Method: Magel et al. (2024): Inhibition of neural crest cells migration by strobilurin fungicides […]
Figure S11. Prolonged exposure of NCC in a modified transwell assay setup.
(A) Schematic illustration of the “long-term” transwell migration assay. In the beginning, NCC were plated into the insert of the transwell and treated with potential toxicants. In comparison to the standard transwell set-up, the lower medium compartment was initially not supplemented with FBS. In order to ensure a uniform concentration, picoxystrobin was added to both compartments. Cells were then incubated for 18 h (in the absence of a migration stimulus). Afterwards, 5% FBS was added to the lower compartment, to initiate NCC migration through the membrane pores. After 6 h, the number of cells that reached the downward surface of the membrane was quantified. (B) Result of concentration-dependent picoxystrobin testing in galactose medium in the long-term transwell assay. Cytochalasin D (200 nM) was used as positive control for “inhibited” migration (CytoD). “Unstimulated” migration (no FBS) is also shown. The dotted line at 75% indicates the threshold for inhibited migration. Data are expressed as means ± SEM from 3 independent biological experiments.
(also on this page, place not known: concentration -dependent long -term dott ed -4Ctrl Transwell migration [% of control ± SEM] CytoDBMC25 Picoxystrobin) […]

**Q.** For `CO/C=C(/C(=O)OC)c1ccccc1COc1cccc(C(F)(F)F)n1` [Picoxystrobin, picoxystrobin], which ATP levels (neural crest cells (NCC) [1]) is on record?
**A.** did not decrease

**Q.** What about the “blood to plasma ratio” value [2] of the same molecule?
**A.** 0.71

**Q.** And the “fraction unbound in blood plasma” value [2]?
**A.** 0.0127

**Q.** And the “BMC10 (V)” value (neural crest cells (NCC) [3])?
**A.** 2.8 µM

**Q.** And the “concentration range at which migration was inhibited” value (neural crest cells (NCC) [3]; galactose medium)?
**A.** ~100 nM

**Q.** And the “concentration range at which migration was inhibited” value (neural crest cells (NCC) [4]; 18 h pre-treatment + 6 h migration)?
**A.** ~600 nM

**Q.** And the BMC25 (neural crest cells (NCC) [4]; galactose medium, 18 h pre-exposure + 6 h migration)?
**A.** 0.6 µM
